Data on 4 molecules can be found in patent US20110245288A1 (priority 2010, published 2011).

A value given as a limit tells only on which side of the number the result lay.

For data set [1] the following is noted: human.
For data set [2] the following is noted: human. This is another data set of the same source.

In the case of `CCOCCOCCOCCOCCOC(=O)Oc1ccc2c3c1O[C@H]1[C@@]4(OC)CC[C@@]5(C[C@@H]4[C@](C)(O)C(C)(C)C)[C@@H](C2)N(CC2CC2)CC[C@]315` [Formula II, Buprenorphine 3,6,9,12-tetraoxatetradecanyl carbonate], in data set [1], the Cumulative permeation is on record as 4.5 ± 1.9 nmol, the Flux was found to be 0.31 ± 0.26 nmol/cm^2/h, the Lag time is 7.4 ± 4.7 h and the “Skin Disposition” value was 4.5 ± 1.9 µmol/g. Also, the “Plasma hydrolysis (k)” value in data set [2] was -1.12 h⁻¹.
Regarding `CCOCCOCCOCCOC(=O)Oc1ccc2c3c1O[C@H]1[C@@]4(OC)CC[C@@]5(C[C@@H]4[C@](C)(O)C(C)(C)C)[C@@H](C2)N(CC2CC2)CC[C@]315` [Formula III, Buprenorphine 3,6,9-trioxaundecyl carbonate], in data set [1], the Cumulative permeation stood at 23.9 ± 6.7 nmol, the Flux is reported as 1.74 ± 0.45 nmol/cm^2/h, the Lag time is 8.7 ± 0.6 h and the “Skin Disposition” value amounted to 13.89 ± 12.21 µmol/g. Further, in data set [1], the flux enhancement entry is reported as “*FormuIa III (4) (key: *Indicates a flux enhancement greater than 2.)” and the “fold increase in cumulative permeation as compared to BUP” value is at least 2.75 fold. Further, the “Plasma hydrolysis (k)” value in data set [2] is -0.37 h⁻¹.
For the molecule `CO[C@]12CC[C@@]3(C[C@@H]1[C@](C)(O)C(C)(C)C)[C@H]1Cc4ccc(O)c5c4[C@@]3(CCN1CC1CC1)[C@H]2O5` [BUP, buprenorphine, reference compound], in data set [1], the Cumulative permeation is recorded as 6.32 ± 2.16 nmol, the Flux was determined as 0.44 ± 0.14 nmol/cm^2/h, the Lag time stood at 9.2 ± 2.0 h and the “Skin Disposition” value was 0.62 ± 0.34 µmol/g.
On to `CCOCCOCCOC(=O)Oc1ccc2c3c1O[C@H]1[C@@]4(OC)CC[C@@]5(C[C@@H]4[C@](C)(O)C(C)(C)C)[C@@H](C2)N(CC2CC2)CC[C@]315` [Formula I, Buprenorphine 3,6-dioxaoctyl carbonate], for which, in data set [1], the Cumulative permeation was determined as 17.5 ± 4.0 nmol, the Flux came to 1.24 ± 0.23 nmol/cm^2/h, the Lag time is 7.7 ± 1.7 h and the “Skin Disposition” value is 1.0 ± 0.4 µmol/g. Further, in data set [1], the flux enhancement result is reported as “*Formula I (3) (key: *Indicates a flux enhancement greater than 2.)” and the “fold increase in cumulative permeation as compared to BUP” value is on record as at least 2.75 fold. Moreover, in data set [2], the “Plasma hydrolysis (k)” value is -0.113 h⁻¹.
